Test results: US11149062B2, “HDAC inhibitors and methods of treatment using the same” (UWM Research Foundation, Inc., priority 2015, dated 2021)
Read-outs that look alike come from different tables or passages of the source.

Key:
HCT-116 (colon cancer) = test: MTT antiproliferative assay, HCT-116; format: cell-based; settings: Homo sapiens, read-out: Antiproliferative Activity GI50, Colon HCT-116
Protocol: (§1) Briefly, the tumor cells (1×10^4 cells/well) were seeded in 96-well microtiter plates and incubated for 24 h at 37° C. Following incubation, the media was replaced with fresh media containing the above compounds at concentrations ranging from 1 μM to 1 pM diluted in DMSO and incubated for an additional 48 h. Drugs were run in duplicate or triplicate and control cells received fresh media with DMSO concentration equivalent to the treatment groups. […] After aspirating the culture medium, 200 μL of DMSO was added to dissolve the precipitate and the resulting solution was measured for absorbance at 570 nm with a reference wavelength of 690 nm using a microplate reader (Infinite M200 Pro TECAN).

HeLa (cervical cancer) = test: MTT antiproliferative assay, HeLa; format: cell-based; settings: Homo sapiens, 48 h, read-out: Antiproliferative Activity GI50, Cervical HeLa
Protocol: as §1

RFX393 (renal) = test: MTT antiproliferative assay, RFX393; format: cell-based; settings: 48 h, read-out: Antiproliferative Activity GI50, Renal RFX393
Protocol: as §1

SKOV-3 (ovarian) = test: MTT antiproliferative assay, SKOV-3; format: cell-based; settings: Homo sapiens, read-out: Antiproliferative Activity GI50, Ovarian SKOV-3
Protocol: as §1

DU-145 (prostate cancer) = test: MTT antiproliferative assay, DU-145; format: cell-based; settings: Homo sapiens, read-out: Antiproliferative Activity GI50, Prostate DU-145
Protocol: as §1

[1] = system: MDA-MB-231 (breast cancer); test: MTT antiproliferative assay, MDA-MB-231; format: cell-based; settings: Homo sapiens, read-out: Antiproliferative Activity GI50, Breast MDA-MB-231
Protocol: as §1

COLO-205 (colon cancer) = test: MTT antiproliferative assay, COLO-205; format: cell-based; settings: Homo sapiens, read-out: Antiproliferative Activity GI50, Colon COLO-205
Protocol: as §1

[2] = Maximum tolerated dose (MTD); settings: BALB/c, mouse, in vivo, ip
From the text: (§2) BALB/c mice were purchased from The Jackson Laboratory (Bar Harbor, Me.) and used between 7 and 10 weeks of age. Mice were housed in a conventional animal vivarium and were given free access to food and water. All studies and procedures were approved by the Animal Care and Use Committee of the University of Wisconsin, Milwaukee.
(§3) Each animal was initially weighed using a digital scale and then intraperitoneally (IP) injected with the compounds (listed in Table 2). A single mouse was given a single IP dose of 200 mg/kg, body weight, a second mouse received a dose of 100 mg/kg and a third mouse received a single dose of 50 mg/kg. The mice were observed and weighed every other day for a period of 2 weeks. They were euthanized if they lost more than 20% of their body weight or if there were other signs of significant toxicity. […] This process was repeated until a tolerated dose was found, and the MTD value was determined.
(§4) To determine the MTD in vivo, the compounds listed above were injected intraperitoneally into BALB/c mice and morbidity and mortality were monitored over two weeks.

[3] = system: colon (HCT-116), cervical (HeLa), and renal (RFX393) tumor cell lines; test: MTT antiproliferative assay, all three tumor cell lines; format: cell-based; settings: read-out: GI50 values against all three tumor cell lines
Protocol: as §1

[4] = 10 mg/mL cpd in 20% DMSO/saline
Recombinant human HDAC1 = molecular target: T1, Recombinant human HDAC1 (Homo sapiens, UniProt Q13547); test: HDAC-Glo I/II assay, HDAC1; format: biochemical; settings: for Class I selectivity Ratio HDAC 1/HDAC8: ratio of IC50 values
T1 construct: purchased BPS Bioscience Inc
T1 sequence (Q13547 whole entry): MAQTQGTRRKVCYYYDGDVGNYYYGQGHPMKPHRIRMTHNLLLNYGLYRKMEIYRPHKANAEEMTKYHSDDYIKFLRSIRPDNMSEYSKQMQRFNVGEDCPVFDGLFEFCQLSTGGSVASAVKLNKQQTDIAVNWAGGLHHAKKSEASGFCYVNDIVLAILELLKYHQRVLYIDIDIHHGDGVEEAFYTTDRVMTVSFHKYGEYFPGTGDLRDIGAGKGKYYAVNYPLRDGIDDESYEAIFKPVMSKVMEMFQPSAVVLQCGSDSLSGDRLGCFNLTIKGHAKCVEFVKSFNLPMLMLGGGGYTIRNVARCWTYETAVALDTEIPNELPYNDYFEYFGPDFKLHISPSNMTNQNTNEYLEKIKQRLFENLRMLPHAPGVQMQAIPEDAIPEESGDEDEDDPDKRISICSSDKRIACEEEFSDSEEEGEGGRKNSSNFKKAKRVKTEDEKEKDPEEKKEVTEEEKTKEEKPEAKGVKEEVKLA
Protocol: (§5) The purified compounds of all fragments and natural product derivatives were evaluated for inhibitory effects on three different classes of HDAC proteins (class I, IIa, and IIb). […] All activity was determined by using a fluorescence-based in vitro assay. Class I HDAC proteins that were evaluated were HDAC1, HDAC2, HDAC3, HDAC8, HDAC4, and HDAC6. Class IIa HDAC protein were HDAC4 and the Class IIb HDAC protein were HDAC6.
(§6) HDAC-Glo™ I/II Assay and Screening System (Promega) was used to determine the HDAC inhibitory activity. Recombinant human HDAC1, HDAC2, HDAC3, HDAC4, HDAC6 and HDAC8 were purchased from BPS Bioscience Inc. The inhibitory activities of the test compounds against recombinant HDAC were performed according to reagent suppliers' protocols.
(§7) All test compounds were firstly dissolved in DMSO to make 10 mM stock solution. A certain amount of stock solution was diluted to 1 mM by DMSO and then reduced by tris(2-carboxyethyl)phosphine hydrochloride (TCEP) in a molar ration of 1:1.5 for 20 min at ambient temperature prior to being assayed. After reduction, a series of fivefold dilutions of each reduced compound were prepared with HDAC-Glo buffer and 25 μL of each dilution was added into a well on a 96-well plate. HDAC enzymes were diluted to the desired concentrations with HDAC-Glo buffer and 25 μL of each diluted enzyme was dispensed into a well to mix with 25 μL of testing compound at room temperature for 30-60 seconds. After the reaction mixture had been incubated at room temperature for 1 hour, 50 μL of HDAC-Glo reagent was added to each reaction well and mixed up for 30-60 seconds. Finally, the plate was incubated at room temperature for an additional 30 minutes before the luminescence was measured on a Synergy HT plate reader (Bio-Tek). The luminescence intensity data were analyzed using GraphPad Prism 5 (GraphPad Software). In the absence of any test compound, the luminescence intensity (I100) in each data set was defined as 100% activity. In the absence of both of HDAC enzymes and test compound, the luminescence intensity (I0) in each data set was defined as 0% activity. The relative activity (%) in the presence of each compound was calculated according to the following equation: % activity=(I−I0)/(I100−I0), where I=the luminescence intensity if a compound is present in the reaction. Experiments were performed in triplicate and the calculated mean values were used for plotting.

Recombinant human HDAC2 = molecular target: T2, Recombinant human HDAC2 (Homo sapiens, UniProt Q92769); test: HDAC-Glo I/II assay, HDAC2; format: biochemical; settings: Class I HDAC; compounds reduced by TCEP prior to assay
T2 construct: purchased BPS Bioscience Inc
T2 sequence (Q92769 whole entry): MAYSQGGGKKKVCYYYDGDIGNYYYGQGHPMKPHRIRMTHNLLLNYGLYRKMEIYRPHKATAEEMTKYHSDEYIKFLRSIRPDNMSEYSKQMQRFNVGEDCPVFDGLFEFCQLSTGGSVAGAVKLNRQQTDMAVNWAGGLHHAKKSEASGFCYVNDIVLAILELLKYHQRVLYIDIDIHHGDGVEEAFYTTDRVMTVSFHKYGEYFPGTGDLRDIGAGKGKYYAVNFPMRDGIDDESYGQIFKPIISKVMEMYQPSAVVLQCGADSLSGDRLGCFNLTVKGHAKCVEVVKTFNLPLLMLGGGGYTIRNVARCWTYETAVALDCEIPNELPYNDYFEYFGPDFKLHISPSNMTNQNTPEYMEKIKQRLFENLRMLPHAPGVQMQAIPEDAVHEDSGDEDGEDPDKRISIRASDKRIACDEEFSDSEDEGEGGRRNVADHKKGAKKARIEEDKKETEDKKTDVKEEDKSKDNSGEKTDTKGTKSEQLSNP
Protocol: as §5, §6, §7

Recombinant human HDAC3 = molecular target: T3, Recombinant human HDAC3 (Homo sapiens, UniProt O15379); test: HDAC-Glo I/II assay, HDAC3; format: biochemical; settings: Class I HDAC; compounds reduced by TCEP prior to assay
T3 construct: purchased BPS Bioscience Inc
T3 sequence (O15379 whole entry): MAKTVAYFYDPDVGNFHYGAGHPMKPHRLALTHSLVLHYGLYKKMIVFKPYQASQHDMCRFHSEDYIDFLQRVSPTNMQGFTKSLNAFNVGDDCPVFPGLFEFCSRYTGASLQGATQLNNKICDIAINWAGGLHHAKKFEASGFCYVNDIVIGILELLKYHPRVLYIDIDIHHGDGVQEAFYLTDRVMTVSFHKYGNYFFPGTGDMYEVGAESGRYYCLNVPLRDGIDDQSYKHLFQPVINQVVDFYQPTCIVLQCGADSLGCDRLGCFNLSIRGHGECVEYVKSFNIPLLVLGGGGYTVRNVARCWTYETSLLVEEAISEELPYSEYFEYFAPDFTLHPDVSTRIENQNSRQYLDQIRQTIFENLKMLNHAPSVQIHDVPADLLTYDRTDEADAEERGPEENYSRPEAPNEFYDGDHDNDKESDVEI
T3 sequence (Q9Y618 395-489 partner limits assumed): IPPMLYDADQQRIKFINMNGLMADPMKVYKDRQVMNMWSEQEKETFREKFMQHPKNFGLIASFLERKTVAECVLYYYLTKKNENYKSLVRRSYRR
Protocol: as §5, §6, §7

Recombinant human HDAC8 = molecular target: T4, Recombinant human HDAC8 (Homo sapiens, UniProt Q9BY41); test: HDAC-Glo I/II assay, HDAC8; format: biochemical; settings: Class I HDAC; compounds reduced by TCEP prior to assay
T4 construct: purchased BPS Bioscience Inc
T4 sequence (Q9BY41 1-377): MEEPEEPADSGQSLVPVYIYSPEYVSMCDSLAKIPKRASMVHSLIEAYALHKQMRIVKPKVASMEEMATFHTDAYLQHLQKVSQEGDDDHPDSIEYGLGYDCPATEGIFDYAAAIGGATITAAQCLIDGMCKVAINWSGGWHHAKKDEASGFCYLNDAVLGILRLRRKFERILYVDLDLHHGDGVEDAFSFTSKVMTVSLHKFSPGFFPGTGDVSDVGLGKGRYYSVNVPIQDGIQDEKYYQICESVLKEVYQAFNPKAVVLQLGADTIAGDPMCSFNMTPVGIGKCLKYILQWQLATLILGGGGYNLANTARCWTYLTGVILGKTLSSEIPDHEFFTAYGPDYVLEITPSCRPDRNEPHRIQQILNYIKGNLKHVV
Protocol: as §5, §6, §7

Recombinant human HDAC4 = molecular target: T5, Recombinant human HDAC4 (Homo sapiens, UniProt P56524); test: HDAC-Glo I/II assay, HDAC4; format: biochemical
T5 construct: purchased BPS Bioscience Inc
T5 sequence (P56524 whole entry): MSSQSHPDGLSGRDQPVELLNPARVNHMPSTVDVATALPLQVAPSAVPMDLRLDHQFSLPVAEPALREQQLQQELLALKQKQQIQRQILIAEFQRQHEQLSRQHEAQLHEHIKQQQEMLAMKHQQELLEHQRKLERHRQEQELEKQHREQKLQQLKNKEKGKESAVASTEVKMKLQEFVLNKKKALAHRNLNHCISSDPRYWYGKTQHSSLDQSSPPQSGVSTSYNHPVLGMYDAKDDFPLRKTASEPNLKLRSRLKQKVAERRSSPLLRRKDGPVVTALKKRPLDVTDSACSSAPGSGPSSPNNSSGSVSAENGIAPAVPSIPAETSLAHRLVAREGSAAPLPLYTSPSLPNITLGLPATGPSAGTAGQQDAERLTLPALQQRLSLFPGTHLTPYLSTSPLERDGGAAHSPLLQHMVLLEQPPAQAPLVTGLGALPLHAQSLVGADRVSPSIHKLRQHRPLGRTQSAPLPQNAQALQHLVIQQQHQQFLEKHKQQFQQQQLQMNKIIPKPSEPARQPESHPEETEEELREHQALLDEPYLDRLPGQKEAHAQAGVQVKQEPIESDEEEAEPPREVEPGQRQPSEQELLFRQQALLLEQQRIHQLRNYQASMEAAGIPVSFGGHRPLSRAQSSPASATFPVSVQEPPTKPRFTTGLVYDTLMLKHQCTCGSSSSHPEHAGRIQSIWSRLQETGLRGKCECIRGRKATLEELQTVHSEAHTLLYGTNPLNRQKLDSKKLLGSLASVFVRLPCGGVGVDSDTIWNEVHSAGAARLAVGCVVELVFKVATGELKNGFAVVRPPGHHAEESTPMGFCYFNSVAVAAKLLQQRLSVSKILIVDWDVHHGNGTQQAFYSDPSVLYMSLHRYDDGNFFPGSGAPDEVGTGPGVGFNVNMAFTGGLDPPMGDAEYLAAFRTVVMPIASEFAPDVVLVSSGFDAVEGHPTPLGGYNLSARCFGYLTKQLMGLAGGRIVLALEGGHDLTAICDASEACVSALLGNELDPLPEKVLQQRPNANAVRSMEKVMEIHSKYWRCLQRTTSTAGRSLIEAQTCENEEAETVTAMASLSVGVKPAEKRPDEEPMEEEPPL
Protocol: as §5, §6, §7

class I HDACs = test: HDAC-Glo I/II assay, class I HDACs; format: biochemical, human; settings: methyl esters compared with TDF4, TDF5, TDF6
Protocol: The purified compounds of all fragments and natural product derivatives were evaluated for inhibitory effects on three different classes of HDAC proteins (class I, IIa, and IIb). The natural products FK228, SAHA, TDP-A, and TDP-B were used as a positive control. All activity was determined by using a fluorescence-based in vitro assay. Class I HDAC proteins that were evaluated were HDAC1, HDAC2, HDAC3, HDAC8, HDAC4, and HDAC6. Class IIa HDAC protein were HDAC4 and the Class IIb HDAC protein were HDAC6.
as §6
as §7, with “After reduction, a series of fivefold dilutions of each reduced compound were prepared with HDAC-Glo buffer and 25 μL of each dilution was added into a well on a 96-well plate. HDAC enzymes were diluted to the desired concentrations with HDAC-Glo buffer and 25 μL of each diluted enzyme was dispensed into a well to mix with 25 μL of testing compound at room temperature for 30-60 seconds. After the reaction mixture had been incubated at room temperature for 1 hour, 50 μL of HDAC-Glo reagent was added to each reaction well and mixed up for 30-60 seconds.” left out

BALB/c mice = test: Maximum tolerated dose (MTD)
From the text: as §2, §3, §4

[5] = MTD (toxicity in healthy BALB/c mice), single IP dose, observed 2 weeks
[6] = Class I HDAC, compounds reduced by TCEP prior to assay, read-out: IC50 of HDAC1
[7] = Class IIa HDAC, compounds reduced by TCEP prior to assay, read-out: IC50 of HDAC4

Structure (SMILES)	GI50 (HCT-116 (colon cancer); HCT-116, 48 h) [µM]	GI50 (HeLa (cervical cancer)) [µM]	GI50 (RFX393 (renal)) [µM]	MTD at 2 weeks [2, 5] [mg/kg]	Solubility [4]	IC50 (Recombinant human HDAC1; [6]) [µM]	Class I selectivity Ratio HDAC 1/HDAC8 (Recombinant human HDAC1)	IC50 (Recombinant human HDAC2) [µM]	IC50 (Recombinant human HDAC3) [µM]	IC50 (Recombinant human HDAC8) [µM]	IC50 (Recombinant human HDAC4; [7]) [µM]	GI50 (HCT-116 (colon cancer); HCT-116, MTT, 48 h) [µM]	GI50 (HeLa (cervical cancer); MTT) [µM]	GI50 (RFX393 (renal); MTT) [µM]	MTD at 2 weeks [2] [mg/kg]	fold less active toward all class I HDACs (class I HDACs)	further results
O=C(CCCCCCC(=O)Nc1ccccc1)NO [SAHA, suberoyl anilide hydroxamic acid, reference compound]	2.7	2.8	2.5	> 200	Not soluble	–	–	–	–	–	–	–	–	–	–	–	GI50 (SKOV-3 (ovarian); SK-OV-3, 48 h): 1.5 µM; GI50 (DU-145 (prostate cancer); DU-145, 48 h): 2 µM; GI50 ([1]; MDA-MB-231, 48 h): 1.5 µM; GI50 (COLO-205 (colon cancer); COLO 205, 48 h): 0.5 µM; GI50 [3]: 2.5 to 3 µM
CCC(C)C(NC(=O)CC(O)/C=C/CCS)C(=O)OC (stereo not drawn) [TDF4m]	–	–	–	–	Soluble	0.0303	0.00061	2.12	0.0971	117	> 1000	31	20.1	32.1	> 200	about 10 fold	–
C/C=C1\NC(=O)[C@H]2CSSCC/C=C/[C@H](CC(=O)N[C@H](C(C)C)C(=O)N2)OC(=O)[C@H](C(C)C)NC1=O [FK228, romidepsin, reference compound]	0.0012	0.0013	0.0012	3.25	–	–	–	–	–	–	–	–	–	–	–	–	IC50 (Recombinant human HDAC1): 0.0038 µM; IC50 (Recombinant human HDAC4): 2.37 µM; MTD (toxicity in healthy BALB/c mice) (BALB/c mice; single IP dose, observed 2 weeks): 3.125 mg/kg
CCCC[C@H](NC(=O)CC(O)/C=C/CCS)C(=O)OC (stereo partly drawn) [TDF5m]	–	–	–	–	Soluble	0.0265	0.00159	1.66	0.124	133	> 1000	32.6	30.2	40.1	> 200	about 10 fold	–
COC(=O)[C@@H](NC(=O)CC(O)/C=C/CCS)C(C)C (stereo partly drawn) [TDF6m]	–	–	–	–	Soluble	0.0302	–	1.93	0.1	100	> 1000	28.4	25.6	31.7	> 200	about 10 fold	–
CCCC[C@H](NC(=O)CC(O)/C=C/CCS)C(=O)O (stereo partly drawn) [TDF5]	–	–	–	–	Mostly soluble	0.0026	0.00002	0.0459	0.839	49.4	> 1000	0.4	0.4	0.5	> 200	–	GI50 (SKOV-3 (ovarian); SK-OV-3, MTT, 48 h): 0.7 µM; GI50 (DU-145 (prostate cancer); DU-145, MTT, 48 h): 0.6 µM; GI50 ([1]; MDA-MB-231, MTT, 48 h): 0.5 µM; GI50 (COLO-205 (colon cancer); COLO 205, MTT, 48 h): 0.9 µM; MTD (toxicity in healthy BALB/c mice) (BALB/c mice; BALB/c, mouse, in vivo, ip, 2 weeks): >200 mg/kg; GI50 ([3]; HCT-116, HeLa, RFX393, summary of Table 3): 0.5 µM
